Laboratory results from PubChem BioAssay (NCI).
Values joined by “and” are separate entries in the source; they are usually repeats but may differ in a detail not shown here. Identical values can stand only once.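 48-hour exposure; five concentrations; linearly interpolated endpoints. The concentration for 50% growth inhibition is given as GI50. Definition used: TGI = concentration required for complete inhibition of growth.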

Tests used:
Experiment in all cases: DTP human tumour cell line panel, 48 h
BT-549 breast = system: BT-549 breast
CAKI-1 renal = system: CAKI-1 renal
SF-539 CNS = system: SF-539 CNS
MDA-MB-435 = system: MDA-MB-435
KM12 colon = system: KM12 colon
OVCAR-8 ovarian = system: OVCAR-8 ovarian
SNB-19 CNS = system: SNB-19 CNS
OVCAR-4 ovarian = system: OVCAR-4 ovarian
HCC-2998 colon = system: HCC-2998 colon
UACC-257 melanoma = system: UACC-257 melanoma

SMILES | GI50 (BT-549 breast) | TGI (BT-549 breast) | GI50 (CAKI-1 renal) | TGI (CAKI-1 renal) [µM] | GI50 (SF-539 CNS) | TGI (SF-539 CNS) | GI50 (MDA-MB-435) | TGI (MDA-MB-435) | GI50 (KM12 colon) | TGI (KM12 colon) | GI50 (OVCAR-8 ovarian) | TGI (OVCAR-8 ovarian) | GI50 (SNB-19 CNS) | TGI (SNB-19 CNS) [µM] | GI50 (OVCAR-4 ovarian) | TGI (OVCAR-4 ovarian) [µM] | GI50 (HCC-2998 colon) | TGI (HCC-2998 colon) | GI50 (UACC-257 melanoma) | TGI (UACC-257 melanoma)
CC(C)COCC(CN(Cc1ccccc1)c1ccccc1)N1CCCC1 (stereo not drawn) | 5.75 µM | 19 µM | 3.25 µM | 13.7 | 6.46 µM | 19.4 µM | 3.46 µM | 13.8 µM | 3.54 µM | 13.7 µM | 3.75 µM | 14.9 µM | 3.07 µM | 12.2 | 2.04 µM | 11 | 2.25 µM | 6.16 µM | 3.28 µM | 15.3 µM
CNCCNc1c2c(c(NCCNC)c3[nH]ccc13)C(=O)c1ccccc1C2=O | 4 µM | 8.21 µM | 0.278 µM | 1.15 | 0.458 µM | 1.07 µM | 0.255 µM | 1.47 µM | 0.0892 µM | 0.374 µM | 0.0578 µM | 0.393 µM | 4.58 µM | 11.5 | 1.66 µM | 5.11 | 0.203 µM | 0.649 µM | 1.72 µM | 7.04 µM
Cc1cc2[nH]c(=O)c3c4ccccc4cn3c2cc1C | 19.6 µM | 40.9 µM | 5.33 µM | 17.8 | 11.2 µM | 27 µM | 6 µM | 19.8 µM | 7.06 µM | 21.5 µM | 7.07 µM | 25.9 µM | 16.3 µM | 36.7 | 13.5 µM | 27.6 | 4.04 µM | 16.7 µM | 20.2 µM | 35.9 µM
CCCCCCCCCCC(C(O)c1ccccc1)N1CCCCC1 (stereo not drawn) | 4.57 µM | 16.5 µM | 1.53 µM | 3.06 | 2.06 µM | 3.84 µM | 1.66 µM | 3.03 µM | 1.29 µM | 2.72 µM | 3.29 µM | 13 µM | 1.84 µM | 3.95 | 3.66 µM | 13.2 | 1.61 µM | 3.07 µM | 2.02 µM | 4.28 µM
C=C(C)[C@@H]1CC[C@]2(C)[C@H](CC=C3[C@@H]4[C@@H](C)[C@H](C)CC[C@]4(C(N)=O)CC[C@]32C)[C@@]1(C)CCC#N | 4.4 µM | 18 µM | 3.25 µM | > 100 | 4.79 µM | 16.6 µM | 4.36 µM | > 100 µM | 3.47 µM | 23.2 µM | 5.38 µM | 27.5 µM | 6.31 µM | > 100 | 3.74 µM | > 100 | 4.8 µM | 18.8 µM | 5.39 µM | 76.5 µM
FC(F)(F)c1ccc(C#Cc2ccccc2C#Cc2ccccc2)cc1 | > 100 µM | > 100 µM | 46.1 µM | > 100 | 41.4 µM | > 100 µM | 35.4 µM | > 100 µM | 31.4 µM | > 100 µM | 59.2 µM | > 100 µM | 69.3 µM | > 100 | 57.5 µM | > 100 | 32.7 µM | 53.1 µM | 69.5 µM | > 100 µM
C=C1C(=O)O[C@H]2[C@H](OC(C)=O)[C@@H](C)CCC/C(C)=C/CC[C@@]3(C)O[C@@H]3C[C@@H]12 |  | 8.76 µM |  | 5.37 |  | 13.9 µM |  | 15.1 µM |  | 18.8 µM |  | 2.63 µM |  | 34 |  | 8.76 |  | 11.6 µM |  | 11.7 µM
OC(CNCC1CCCO1)Cn1c2ccc(Cl)cc2c2cc(Cl)ccc21 (stereo not drawn) | 5.98 µM | 27.1 µM | 1.54 µM | 3 | 1.66 µM | 3.13 µM | 1.66 µM | 3.02 µM | 1.81 µM | 3.27 µM | 2.02 µM | 4.22 µM | 1.88 µM | 3.96 | 1.75 µM | 4.32 | 1.71 µM | 3.15 µM | 1.64 µM | 3.13 µM
Oc1ccccc1C=Nc1nc(SCc2ccccc2)nc2[nH]ncc12 | > 100 µM | > 100 µM | 47.6 µM | > 100 | > 100 µM | > 100 µM | 35.8 µM | > 100 µM | 37.5 µM | > 100 µM | 46.8 µM | > 100 µM | 49.5 µM | > 100 | > 100 µM | > 100 | 47.9 µM | > 100 µM | 52.3 µM | > 100 µM
CCN1Cc2c(ccc(F)c2C#N)O[C@@H](C)CNC(=O)c2c(N)nn3ccc1nc23 | 5.98 µM | 18.5 µM | 0.399 µM | 1.98 | 3.46 µM | 15.8 µM | 2.74 µM | 20.2 µM |  | 69.7 µM | 4.33 µM | > 100 µM | 8.93 µM | 39.3 | 8.44 µM | > 100 | 5.57 µM | 20.7 µM | 2.63 µM | 16.7 µM
COC(=O)C1CCCN1C(=O)[C@@H]1CCCN1C(=O)[C@H](Cc1c[nH]c2ccccc12)NC(=S)Nc1cc(C(F)(F)F)cc(C(F)(F)F)c1 (stereo partly drawn) | 2.88 µM | 8.03 µM | 2.73 µM | 11.1 | 2.43 µM | 5.85 µM | 3.03 µM | 12.4 µM | 1.92 µM | 4.03 µM | 1.92 µM | 4.2 µM | 2.7 µM | 12.1 | 3.18 µM | 11.2 | 1.96 µM | 4.5 µM | 2.4 µM | 8.17 µM
CCN(CC)CCn1c2ccccc2c(=O)c2c(O)ccc(O)c21 |  | 44.7 µM |  | 61.5 |  | 50.3 µM |  | 33.4 µM |  | > 74.8 µM |  | 48.2 µM |  | > 74.8 |  | 34.5 |  | > 57.7 µM |  | 60.6 µM
COc1cc2c(cc1OCCCCCOc1ccc(-n3c(C)nc4ccccc4c3=O)cc1)N=C[C@@H]1CCCN1C2=O | 0.137 µM | 0.34 µM | 0.275 µM | 1.02 | 0.285 µM | 0.728 µM | 0.184 µM | 0.39 µM | 0.173 µM | 0.362 µM | 0.363 µM | 3 µM | 1 µM |  | 0.515 µM | 13.2 | 0.256 µM | 0.685 µM | 0.434 µM | 1.48 µM
CC1(O)CC(c2nc(-c3ccc4ccc(-c5ccccc5)nc4c3)c3c(N)nccn23)C1 (stereo not drawn) | 6.92 µM and 5.87 µM | 24.3 µM and > 10 µM | 4.58 µM and 2.16 µM | > 100 | 11.9 µM and > 10 µM | 28.8 µM and > 10 µM | 4.53 µM and 3.69 µM | 27.3 µM and > 10 µM | 4.31 µM and 3.88 µM | 19.4 µM and > 10 µM | 9.34 µM and > 10 µM | 80 µM and > 10 µM | 19.8 µM and > 10 µM | > 100 | 7.5 µM and > 10 µM | > 95 | 6.71 µM and > 10 µM | 27.3 µM and > 10 µM | 5.68 µM and > 10 µM | 48.2 µM and > 10 µM
O=C1C=CC[C@H](/C=C/c2ccccc2)O1 | 2.28 µM | 19.3 µM | 1.05 µM | 14.4 | 0.813 µM | 8.24 µM | 1.81 µM | 14.8 µM | 4.06 µM | 17.8 µM | 6.03 µM | > 100 µM | 3.61 µM | 22.6 | 1.39 µM | 10.7 | 0.642 µM | 3.42 µM | 9.81 µM | 26.9 µM
